For one test, the system named is TMD8 xenograft tumor. The experiment in a line: Gene expression microarray analysis of TMD8 xenograft tumors.
Test [1] relates to TMD8 subcutaneous xenograft. The experiment in a line: TMD8 subcutaneous xenograft model, tumor volume. The test is classed as in vivo, mouse. The note with it: SCID mice; 1, 3, 10 mg/kg BID orally, 21 days. The method, then: The present study was conducted in compliance with the Guidance for Animal Experiments, the Ethical Standards for Experiments using Human Tissues, and the Standards for Safety Management of Pathogens established by Ono Pharmaceutical Co., Ltd. Female C.B-17/Icr-scid/scidJcl mice (hereafter referred to as severe combined immunodeficient [SCID] mice) were obtained from CLEA Japan, Inc. (Tokyo, Japan). The age at the beginning of the experiment was 6 weeks. To establish the TMD8 xenograft model, TMD8 cell suspension (0.1 mL, 1 × 10^8 cells/mL) was subcutaneously injected into the right flank of SCID mice under pentobarbital anesthesia. […] Tumor diameters and body weight were measured every 3 or 4 days after group assignment. The tumor growth inhibition rate (%) in the tirabrutinib-treated groups, versus the vehicle group, was calculated based on tumor volume. Statistical tests were performed with the SAS 9.2 (SAS Institute Japan Ltd., Tokyo, Japan) TS2M3-based EXSUS system version 7.7.1 (CAC Corporation, Tokyo, Japan). The Dunnett test was used to compare tumor volume in the tirabrutinib- and vehicle-treated groups, and linear regression analysis was used to study dose response in the tirabrutinib groups. The statistical tests were two-sided with a 5% significance level.

Test [2] has as its system BT system (B cells, peripheral blood mononuclear cells). The experiment in a line: BioMAP Diversity PLUS profiling, BT system. The test is classed as cell-based, human. The conditions noted are these: 120, 370, 1100, 3300 nM. The method, then: In brief, cultures with one or more primary cell types from healthy human donors were treated with sets of stimulators specific to the cell subsets, and the optimized biomarker readouts for each system were measured by ELISA and other techniques, as listed in S1 Table. The assays included positive and negative controls as well as vehicle control. Results are presented as the log-transformed ratio of biomarker readouts for tirabrutinib-treated samples to vehicle controls.

The test system of a further test is TMD8 cells. The experiment in a line: Cell viability assay (CellTiter-Glo). Type of test: cell-based. The conditions noted are these: Homo sapiens, 72 h. The method, then: (§1) After incubation for 72 h at 37°C and 5% CO2/95% air, relative light units (RLU) were measured with the CellTiter-Glo Luminescent Cell Viability Assay (Promega, Madison, WI, USA). […] GraphPad Prism (version 5.01J or 5.04; GraphPad Software, Inc., San Diego, CA, USA) and its base settings were used for initial values and convergence conditions.
Background: Cellular ATP, detected with luciferase, serves as a proxy for viable cell number.

For a further test, the system named is U-2932 cells. The experiment in a line: Cell viability assay (CellTiter-Glo). Type of test: cell-based. The note with it: Homo sapiens, U2932, 72 h. As for the experimental part: as §1
In the next test the target is BTK (Homo sapiens, UniProt Q06187). The experiment in a line: In vivo pharmacodynamics: BTK phosphorylation in TMD8 xenograft tumors (flow cytometry). Set-up: endogenous in cells; host or cells: TMD8 tumour cells from subcutaneous xenografts in SCID mice. The note with it: TMD8, mouse, 1 h after final administration, read-out: BTK phosphorylation inhibition rate in tumor. The method, then: One hour after the final dosing, mice underwent laparotomy under isoflurane anesthesia and were sacrificed by exsanguination; tumors were collected. After measuring the wet weight, each tumor was placed on a 70-μm cell strainer (BD Falcon, Franklin Lakes, NJ, USA) placed in one well of a six-well plate on ice. After adding an amount of precooled culture medium, tumor cells were detached. The cell suspension was transferred to a tube and centrifuged for 8 min at 400 × g. Supernatant was excluded by aspiration, and cells were resuspended in culture medium. The tumor suspension was diluted with culture medium to a cell density of 1.0 × 10^6 cells/mL and pipetted into a 96-well plate. […] Cells were incubated for a further 10 min. Fix Buffer 1 (BD Biosciences, Franklin Lakes, NJ, USA) was added to each well, and the plate was centrifuged for 8 min at 400 × g at room temperature; the supernatant was removed by decantation. Each sample was washed twice with Perm Wash Buffer (BD Biosciences) before the addition of rabbit monoclonal p-BTK antibody (Tyr-223) (Novus Biologicals, #NB100-79907) diluted 500-fold with Perm Wash Buffer and 30-min incubation in the dark at room temperature. Cells underwent two rounds of Perm Wash buffer washes and centrifugation before the addition of the secondary antibody (100 μL Alexa Fluor 488 [Fab’] 2 fragments of goat anti-rabbit IgG [H+L]; Thermo Fisher Scientific) diluted 5,000-fold with Perm Wash buffer. After a 30-min incubation in the dark at room temperature, cells were washed once more and suspended with Stain Buffer (BD Biosciences). Cytomics FC500 MPL and data analysis software CXP Analysis (both from Beckman Coulter K.K, Shizuoka, Japan) were used for flow cytometry analysis. A gate containing the cell population of interest was created in a forward scatter and side scatter dot plot. […] The 7-AAD-positive cell rate (%) and the mean fluorescent intensity of BTK phosphorylation in cells in the relevant gate were measured. […]
Sequence of BTK (Q06187 whole entry): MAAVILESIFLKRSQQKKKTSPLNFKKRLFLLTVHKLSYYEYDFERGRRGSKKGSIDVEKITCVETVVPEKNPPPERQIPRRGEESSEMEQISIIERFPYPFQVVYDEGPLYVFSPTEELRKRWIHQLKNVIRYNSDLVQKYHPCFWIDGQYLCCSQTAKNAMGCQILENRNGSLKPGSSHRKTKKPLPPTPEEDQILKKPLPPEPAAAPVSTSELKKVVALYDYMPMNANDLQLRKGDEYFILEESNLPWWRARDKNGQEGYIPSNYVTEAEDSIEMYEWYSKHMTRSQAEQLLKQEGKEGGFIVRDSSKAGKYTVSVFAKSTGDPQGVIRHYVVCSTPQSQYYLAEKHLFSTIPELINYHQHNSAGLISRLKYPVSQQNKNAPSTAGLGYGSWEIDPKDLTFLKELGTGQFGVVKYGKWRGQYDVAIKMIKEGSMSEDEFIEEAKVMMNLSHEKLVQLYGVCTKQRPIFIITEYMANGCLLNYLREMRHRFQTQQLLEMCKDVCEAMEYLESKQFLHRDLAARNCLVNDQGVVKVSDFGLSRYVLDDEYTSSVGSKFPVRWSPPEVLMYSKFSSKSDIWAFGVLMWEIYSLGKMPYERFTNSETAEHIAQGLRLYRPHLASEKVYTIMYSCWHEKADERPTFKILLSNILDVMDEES
Background: Flow cytometry measures light scatter and fluorescence of single cells or particles in a stream.

The target of a further test is ERBB2 (Homo sapiens, UniProt P04626). The experiment in a line: Z'-Lyte kinase inhibition assay. Type of test: biochemical. Set-up: purchased Thermo Fisher Scientific (Invitrogen Z'-Lyte service). The conditions noted are these: 60 min preincubation. The method, then:
In all the assays, each test compound was preincubated with peptide/kinase mixture or kinase/antibody mixture for 60 min at room temperature before adding the ATP solution or AlexaFluor labeled Tracer to initiate the 60-min incubation of the reactants.

The mark [3] stands for this setting: at 100 nM, read-out: maximum growth inhibition rate.
Setting [4] is: read-out: IC50 of growth inhibition.

Sequence of ERBB2 (P04626 23-1255): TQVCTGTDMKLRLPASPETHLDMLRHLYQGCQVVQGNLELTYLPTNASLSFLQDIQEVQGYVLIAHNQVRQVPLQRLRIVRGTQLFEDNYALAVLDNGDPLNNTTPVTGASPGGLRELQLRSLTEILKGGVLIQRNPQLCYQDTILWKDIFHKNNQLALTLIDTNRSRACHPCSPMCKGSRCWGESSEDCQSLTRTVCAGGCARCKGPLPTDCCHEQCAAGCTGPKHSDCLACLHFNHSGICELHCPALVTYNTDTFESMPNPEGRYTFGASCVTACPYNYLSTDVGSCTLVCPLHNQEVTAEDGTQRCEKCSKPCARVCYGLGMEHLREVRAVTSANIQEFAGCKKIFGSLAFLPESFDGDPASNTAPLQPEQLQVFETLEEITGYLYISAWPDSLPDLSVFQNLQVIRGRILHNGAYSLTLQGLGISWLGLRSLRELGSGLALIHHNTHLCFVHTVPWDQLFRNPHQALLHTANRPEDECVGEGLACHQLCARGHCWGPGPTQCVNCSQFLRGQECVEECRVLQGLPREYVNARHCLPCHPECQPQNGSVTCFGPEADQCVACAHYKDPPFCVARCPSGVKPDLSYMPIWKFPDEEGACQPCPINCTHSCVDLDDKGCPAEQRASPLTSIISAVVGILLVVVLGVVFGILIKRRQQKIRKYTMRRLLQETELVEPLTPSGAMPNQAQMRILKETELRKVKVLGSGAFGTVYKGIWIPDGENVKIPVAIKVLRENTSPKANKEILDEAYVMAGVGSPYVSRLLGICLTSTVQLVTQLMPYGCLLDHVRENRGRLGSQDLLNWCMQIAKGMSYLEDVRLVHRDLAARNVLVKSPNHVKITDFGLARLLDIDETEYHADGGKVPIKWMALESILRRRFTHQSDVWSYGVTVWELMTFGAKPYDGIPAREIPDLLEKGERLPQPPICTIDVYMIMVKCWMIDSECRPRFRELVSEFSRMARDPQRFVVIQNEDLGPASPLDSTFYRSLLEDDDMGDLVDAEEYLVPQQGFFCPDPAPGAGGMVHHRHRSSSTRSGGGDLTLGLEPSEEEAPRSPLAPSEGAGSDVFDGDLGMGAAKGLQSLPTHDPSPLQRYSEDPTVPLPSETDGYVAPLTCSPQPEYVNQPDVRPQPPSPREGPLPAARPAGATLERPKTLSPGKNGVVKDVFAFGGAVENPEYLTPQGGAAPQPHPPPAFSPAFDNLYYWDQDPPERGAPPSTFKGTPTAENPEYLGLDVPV

Usually inhibition stands for the change of the read-out against control, counted positive when it falls. Usually IC50 stands for the concentration needed to halve the response being measured. Turning to `CC#CC(=O)N1CC[C@@H](n2c(=O)n(-c3ccc(Oc4ccccc4)cc3)c3c(N)ncnc32)C1` [Tirabrutinib], the “number of downregulated probes” value in the test with TMD8 xenograft tumor (10 mg/kg BID 21 days vs vehicle, fold change <0.5, P < 0.01) worked out at 575. Also, the “number of upregulated probes” value with TMD8 xenograft tumor (10 mg/kg BID 21 days vs vehicle, fold change >2, P < 0.01) is 549. Besides, in the test on TMD8 xenograft tumor (TMD8 xenograft, tirabrutinib vs vehicle), the PRDM1 expression result is given as “repressed”. Further, the “anti-tumor effect (tumor volume)” value in test [1] is on record as “dose-dependent anti-tumor effect”. For the same compound, in test [2], the “effect on the BT system (B-cell growth, production of IgG, IL-6, IL-17A, TNFα)” value is on record as “concentration-dependent inhibitory effect”. Further, the inhibition at 0.1 µM amounted to 98.6% in the test with TMD8 cells (setting [3]) and 30.8% in the test with U-2932 cells (setting [3]). Besides, the IC50 in the test on TMD8 cells (setting [4]) was 3.59 nM; with U-2932 cells (setting [4]), 27.6 nM. In addition, the inhibition at 1 mg/kg on BTK (1 mg/kg BID 21 days) was 64%. Besides, on BTK (3 mg/kg BID 21 days), the inhibition at 3 mg/kg was determined as 79.2%. Besides, at BTK (10 mg/kg BID 21 days), the inhibition at 10 mg/kg came out at 85.4%.
Turning to `C=CC(=O)N1CCC([C@@H]2CCNc3c(C(N)=O)c(-c4ccc(Oc5ccccc5)cc4)nn32)CC1` [Zanubrutinib], the IC50 at ERBB2 was determined as 34.8 nM.
